Source: US7767648B2, “Tissue specific prodrugs” (priority 2000, dated 2010)

Columns and labels:
[1] = test system: TSU prostate cancer cell line; experiment: Killing of non-PSMA producing TSU prostate cancer cell line; assay type: cell-based, human
Protocol: The prodrugs are hydrolyzed by PSMA and release the corresponding Asp- or Glu-containing TG analogs or the TG analog itself, and also lack potent cytotoxicity when not metabolized by PSMA. Non-PSMA producing TSU-Pr1 human prostate cancer cell line is exposed to each of the prodrugs at doses that are approximately 50-times the LD50 for the corresponding free TG analog. Against the TSU prostate cancer cell line, 12ADT-Glu has an LD50 value for killing of ˜50 nM.

[2] = Stability of PSMA substrates in mouse plasma, 18 hour incubation, HPLC; assay type: in vitro ADME; details: 18 hour incubation in mouse plasma
From the text: (§1) In order that the prodrugs can be administered systemically via the blood, their stability in sera must be sufficiently high to avoid hydrolysis or other degradative processes which may occur prior to the prodrugs reaching their target tissues. In addition to GGH activity, a human blood plasma glutamate carboxypeptidase (PGCP) that has significant sequence homology to PSMA and glutamate carboxypeptidase activity has been identified. Therefore, to assay hydrolysis by GGH and other serum carboxypeptidases like PGCP, the APA-Glu*Glu*Glu*Glu*Asp, APA-Glu*Glu*Glu*Glu*Gln, and APA-Glu*Glu*Glu*Glu*Glu substrates were incubated in human and mouse plasma and hydrolysis determined by HPLC analysis after an 18-hour incubation, as shown in Table 3. As noted, GGH efficiently hydrolyzes poly-γ-glutamate chains as well as poly-γ-glutamated folate and methotrexate. GGH, however, is unable to hydrolyze α-linked peptides.
(§2) In Tables 1-3, to simplify identification of the type of amino acid linkages employed, α-linkages are denoted by a hyphen (for example, Glu-Glu) and all side-chain linkages are denoted by a star (for example, Glu*Glu). The column labeled “% PSMA Hydrolysis” refers to the percentage of hydrolysis of a substrate to APA-Asp or to APS-Glu by purified PSMA. The column labeled “% APA-Asp or -Glu” refers to the percentage of hydrolysis of substrate to APA-Asp or APA-Glu. The column labeled “% Prodrug Remaining” refers to the area of the HPLC peak attributable to starting material divided by the areas of HPLC peaks attributable to starting material, intermediate products, and final products. […] “ND” means “not determined,” in that the experiment was not performed.

[3] = Stability of PSMA substrates in human plasma, 18 hour incubation, HPLC; assay type: in vitro ADME; details: 18 hour incubation in human plasma
From the text: as §1, §2

TSU cancer cell line = experiment: Inhibition of clonogenic survival of TSU cells in presence or absence of exogenous PSMA; assay type: cell-based; details: exogenous PSMA 10 micrograms/mL, FIG. 4
Protocol: FIG. 4 is a graph of the percentage inhibition of clonogenic survival of TSU cells exposed to various concentrations of APA-Glu*Glu*Glu*Glu*Asp in the presence or absence of PSMA.
The methotrexate analog sequence APA-Glu*Glu*Glu*Glu*Asp was contacted with the non-PSMA producing TSU cancer cell line in various amounts. Exogenous PSMA (10 micrograms/mL) was added to the media and the percent inhibition of clonogenic survival was monitored.

PSMA = PSMA (Homo sapiens, UniProt Q04609); experiment: Hydrolysis of methotrexate analog substrates by purified PSMA (HPLC); assay type: biochemical
Protocol: The extent to which various peptide substrates are hydrolyzed by PSMA was determined by synthesizing a series of methotrexate analogs including the 4-N[N-2,4-diamino-6-pteridinyl-methyl)-N-methylamino-benzoate] (APA) portion of methotrexate coupled to a variety of peptides. Poly-glutamated methotrexate is available from Schirks Laboratories in Jona, Switzerland.
A series of α-linked peptides were investigated for PSMA hydrolysis. […] In Tables 1-3, to simplify identification of the type of amino acid linkages employed, α-linkages are denoted by a hyphen (for example, Glu-Glu) and all side-chain linkages are denoted by a star (for example, Glu*Glu).
Substrate specificity for the pteroyl poly-γ-glutamyl carboxypeptidase (folate hydrolase) activity of PSMA was determined by synthesizing a series of γ-linked methotrexate analogs and assaying them for hydrolysis by PSMA.
as §2

Sequence of PSMA (Q04609 whole entry): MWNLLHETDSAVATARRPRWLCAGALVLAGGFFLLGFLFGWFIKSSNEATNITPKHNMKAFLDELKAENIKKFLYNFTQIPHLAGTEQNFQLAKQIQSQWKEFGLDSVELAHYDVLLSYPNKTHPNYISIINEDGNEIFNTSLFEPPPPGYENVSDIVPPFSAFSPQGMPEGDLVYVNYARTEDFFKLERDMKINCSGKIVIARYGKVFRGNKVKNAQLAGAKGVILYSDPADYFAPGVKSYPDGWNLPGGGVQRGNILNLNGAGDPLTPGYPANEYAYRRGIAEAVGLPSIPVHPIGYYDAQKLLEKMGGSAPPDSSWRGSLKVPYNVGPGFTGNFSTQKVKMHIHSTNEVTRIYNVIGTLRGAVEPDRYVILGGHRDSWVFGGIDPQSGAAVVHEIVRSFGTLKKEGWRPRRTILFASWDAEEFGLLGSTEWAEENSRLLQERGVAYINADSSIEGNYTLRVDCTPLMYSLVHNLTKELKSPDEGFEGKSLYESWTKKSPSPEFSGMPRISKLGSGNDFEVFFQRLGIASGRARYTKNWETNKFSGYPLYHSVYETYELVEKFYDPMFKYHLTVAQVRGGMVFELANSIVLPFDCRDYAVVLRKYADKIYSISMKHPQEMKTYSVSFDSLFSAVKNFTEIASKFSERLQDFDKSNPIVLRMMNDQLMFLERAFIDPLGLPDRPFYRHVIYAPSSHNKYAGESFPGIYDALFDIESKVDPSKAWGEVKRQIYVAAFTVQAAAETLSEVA

| Compound | LD50 value for killing [1] | % APA-Glu or -Asp [2] | remaining at 18 h ([3]; HPLC peak area of starting material over all peaks, read-out: % Prodrug Remaining) | % APA-Glu or -Asp ([3]; hydrolysis of substrate to APA-Asp or APA-Glu) | selectivity, percent inhibition of clonogenic survival with versus without PSMA (TSU cancer cell line) | % hydrolysis after 24 hours (PSMA; Table 2, γ-linked analogs, incubated with PSMA 24 hours) | % hydrolysis after 48 hours (PSMA; Table 2, γ-linked analogs, incubated with PSMA 48 hours) | % PSMA hydrolysis 24 h (PSMA; Table 3, hydrolysis of substrate to APA-Asp or APA-Glu by purified PSMA, 24 h) | % PSMA hydrolysis 48 h (PSMA; Table 3, hydrolysis of substrate to APA-Asp or APA-Glu by purified PSMA, 48 h) | hydrolysis by PSMA (in words) (PSMA; text summary of the tables) |
| --- | --- | --- | --- | --- | --- | --- | --- | --- | --- | --- |
| 8-O-(12-[L-glutamylamino]-dodecanoyl)-8-O-debutanoylthapsigargin [12ADT-Glu] | approximately 50 nM | – | – | – | – | – | – | – | – | – |
| CN(Cc1cnc2nc(N)nc(N)c2n1)c1ccc(C(=O)N[C@@H](CCC(=O)N[C@@H](CCC(=O)N[C@@H](CCC(=O)N[C@@H](CCC(=O)N[C@@H](CC(=O)O)C(=O)O)C(=O)O)C(=O)O)C(=O)O)C(=O)O)cc1 [APA-Glu*Glu*Glu*Glu*Asp] | – | 72% | 20% | 9% | there is selectivity | 40.9% | 77.7% | 98% | 100% | to a greater extent after 24 hours than any of the γ-linked dipeptide analogs |
